Experimental data taken from patent US20150328109A1, “DERMAL COMPOSITIONS CONTAINING UNNATURAL HYGROSCOPIC AMINO ACIDS” (MEDPHARM LIMITED, priority 2012, published 2015).
Where two headings read alike, the source gives them in different places.

How the values were obtained:
RHE tissues [1] = experiment: RHE irritation assessment Method 2: Mattek's MTT effective time (ET-50) assay; type: cell-based, human
Text: Method 1 was used to investigate the potential for alpha-hydroxylglycine (α-H-G) and L-homoserine (L-h-S) to cause skin irritation. The protocol is primarily designed and validated for single compounds rather than solutions. Therefore to provide further insight into the potential of N-hydroxyserine and N-hydroxylglycine to cause skin irritation a second protocol was investigated using Mattek's MTT effective time (ET-50) assay which is designed to test mixtures of compounds. In addition two commercially available amino acid related compound (L-serine and glycine) were selected and tested as comparators for N-hydroxyserine and N-hydroxylglycine. […] As a general guideline, the following groupings can be used in assigning expected in vivo irritancy responses based on the ET-50 results obtained: The irritation assessment of the solutions was performed using the protocol described below. Each of the test solutions; […] Damaged tissues were discarded. • (iii) The tissue were transferred into the assay medium and incubated at 37° C., 5% CO2 until the application of the test solutions; […] The working MTT solution was prepared using the following procedure: • (i) MTT concentrate was removed from the freezer and allowed to thaw. The concentrate was diluted with the MTT diluent solution (1 mL of concentrate to 4 mL of MTT diluent solution). • (ii) MTT solution from Step (i) was centrifuged at a g-force of 300 for 5 min to remove any particulates. • (iii) The supernatant of the MTT solution from Step (ii) was stored in the dark at 4° C. for a maximum period of 24 h and used as required. […] The plates were incubated for 3 h (+/−5 min) at 37° C., 5% CO2 and 95% humidified atmosphere. • (vi) The treated tissues were subsequently transferred into a new plate filled with 1 mL of extractant solution. • (vii) The plates were sealed using Parafilm® to stop evaporation and protected from light using foil before extract at 2-8° C. to minimise evaporation. • (viii) Following extraction the RHE tissue were removed from the wells and an additional 1 mL of extractant solution was added. Using a pipette the extraction solution was mixed and made visually homogenous. • (ix) The solution from Step (viii) was transferred in to n=3 wells (200 μL per well) using an automatic pipette of a 96 well plate and the optical density was measured at a wavelength of 570 nm.

RHE tissues [2] = experiment: RHE irritation assessment Method 1: SkinEthic Skin Irritation Test-42 bis assay (MTT), plus 24 h contact time; type: cell-based, human; conditions: 42 min and 24 h exposure, 5 and 1% w/v α-H-G, 10 and 1% w/v L-h-S in water
Text: The purpose of this experiment was to investigate the potential of alpha-hydroxyglycine (α-H-G) and L-homoserine (L-h-S) to cause skin irritation. The method was based on the validated SOP for the “The SkinEthic Skin Irritation Test-42 bis assay” in accordance to OECD guideline Test No. 439: In Vitro Skin Irritation. The protocol is provided in Section 1.2. Further details on the method can be found in the SkinEthic™ RHE SOP, Version 2.1 (July 2009), SkinEthic skin irritation test-42 bis test method for the prediction of acute skin irritation of chemicals: 42 minutes application+42 hours post-incubation. Available at: [http://ecvam.jrc.ec.europa.eu].
In addition, a further experiment was performed where the contact time of the test solution with the tissue was increased to 24 h. Following which point an MTT assay was used to determine the tissue viability and the test solutions potential to cause irritation.
The following steps were completed on receipt of the tissues: • (i) Wells of 6-well plates were filled with 1 mL growth culture medium. • (ii) Tissue were removed from their packaging, cleaned to remove the transport agarose and inspected for signs of damage; damaged tissues were discarded. • (iii) The tissue were transferred into the growth culture medium then incubated at 37° C., 5% CO2 until application of the test solution.
1.2.1.1.6 Applications of 5 and 1% w/v α-H-G and 10 and 1% w/v L-h-S and Controls • (i) 16 μL±0.5 μL of the test solutions (5% w/v α-hydroxyglycine (α-H-G) in water, 1% w/v α-hydroxyglycine (α-H-G) in water, 10% w/v L-homoserine (L-h-S) in water, 1% w/v L-homoserine (L-h-S) in water) and negative (PBS) and positive (5% SDS) controls were dispensed onto the top of the epidermal tissue, using positive displacement pipette. […]

[3] = Snake study: water uptake into snake skin after treatment with amino acid solution; set-up: species or system Elaphe guttata, the American corn snake; conditions: 24 h treatment with 1.33M amino acid solution, dried, then 40% RH
[4] = Deliquescence relative humidity (DRH) of a saturated solution in a sealed vessel at 32° C.; type: physicochemical; conditions: saturated solution in water (1 mL), 24 hours
Procedure: This experiment was to measure the deliquescence relative humidity (DRH) caused by a saturated amino acid solution in a sealed vessel at 32° C.; the lower the DRH, the greater the water holding capacity of the solution measured. Deliquescence relative humidity is the relative humidity at which the compound deliquesces, i.e. the relative humidity in which the compound absorbs so much water that it dissolves within the absorbed water.
The apparatus is maintained at 32° C. The temperature of 32° C. was chosen for being the temperature of outer stratum corneum. As the amino acids are to eventually be delivered to the outer layer of the skin, then the water holding capacity of these compounds at 32° C. is important.
The saturated solution is prepared as above by adding the amino acid to water (1 mL, 32° C.), whilst swirling. The total amino acid is weighed before adding to the water and the remaining amino acid so that the mass of compound used can be determined. The saturated solution (1 mL, 32° C.) is then transferred into the vial, again because of partial molar volume causing a change in volume by the addition of the amino acid to the water.
The temperature and % RH (% Relative Humidity) shown on the thermo-hygrometer are recorded every 30 minutes until the % RH remains constant. The temperature confirms that the temperature experienced by the sample is 32° C.

RHE tissues [5] = conditions: cited from earlier work
[6] = cited from earlier work
[7] = In vitro permeation of diclofenac diethylamine (DDEA) through epidermal membrane in Franz type diffusion cells after amino acid pre-treatment; type: in vitro ADME, Human; conditions: maximal enhancement of the drug's permeation by amino acid pre-treatment
Procedure: (§1) Acyclovir (ACV), metronidazole and diclofenac diethylamine (DDEA) were analysed using HPLC, using of a Waters Alliance Separations Module and Waters detector. The temperature of the column and samples were maintained at 45±2° C. and 5.0±2° C., respectively. A Kinetix™ C-18 (Phenomenex, USA) column (150 mm×4.6 mm 5 μm particle size) with a guard column (Phenomenex USA, C-18 4.0×3.0 mm) was employed as the stationary phase. The mobile phase was three part; mobile phase A, water; mobile phase B, methanol; and mobile phase C, 10 mM ammonium phosphate buffer pH 2.5. The mobile phase was run using a gradient flow (Table 2) with a flow rate of 0.8 mL/min. Samples were run for 12 minutes with an injection volume of 10 μL. Acyclovir, metronidazole and DDEA were processed at a wavelength of 276 nm, with approximate retention times of 4.7, 6.5, and 8.7 min, respectively. Calibration curves were constructed from a series of standards prepared by serial dilution in conjunction with separately prepared quality controls. […] Data were recorded and analysed using Empower Pro^3 Software. […]
(§2) Three experiments were performed, one for each API (Acyclovir, metronidazole and DDEA). […] The integrity of the epidermal membrane was assessed using electrical resistance to ensure the epidermal membrane was intact. […] Samples were analysed using HPLC and the level of each API that had permeated was quantified.

[8] = In vitro permeation of metronidazole through epidermal membrane in Franz type diffusion cells after amino acid pre-treatment; type: in vitro ADME, Human; conditions: maximal enhancement of the drug's permeation by amino acid pre-treatment
Procedure: as §1, §2

[9] = mass used printed beside the name

Molecule: NC(O)C(=O)O (stereo not drawn) [α-hydroxyglycine, 2-Amino-2-hydroxyacetic acid]
- ET-50 (exposure time to reduce viability to 50% of the control) (RHE tissues [1]; 10% w/v N-H-S, 1% w/v N-H-G in water, dosing periods 2, 6 and 24 h): < 24 h
- expected in vivo irritancy from ET-50 (RHE tissues [1]; 10% w/v N-H-S, 1% w/v N-H-G, 10% w/v L-Serine, 10% w/v Glycine in water): non-irritant
- skin irritation potential (viability below 50% of negative control = irritant) (RHE tissues [2]; listed as alpha-hydroxyglycine): non-irritants
- skin irritation potential (viability below 50% of negative control = irritant) (RHE tissues [2]; listed as α-H-G): non-irritating
- average percentage weight increase after 24 h at 40% RH [3]: particularly advantageous properties
- DRH [4, 9]: 79.73%
- DRH ([4]; mass used printed beside the name, listed as Hydroxyglycine): 79.7%

Molecule: O=[N+]([O-])O [conc. Nitric acid, Nitric acid]
- ET-50 (hrs), general guideline examples (RHE tissues [5]; guideline groupings of the assay): <0.5 strong/severe, possible corrosive hrs

Molecule: O=C(O)Cc1ccccc1Nc1c(Cl)cccc1Cl [Diclofenac diethylamine]
- Log P [6]: 0.85
- ER (drug absorption enhancement factor) [7]: 19

Molecule: NC(=O)C[C@H](N)C(=O)O [Asparagine]
- DRH [4, 9]: 91.2%

Molecule: NC(N)=O [Urea]
- DRH [4, 9]: 75.03%

Molecule: Triton X-100 [1% Triton X-100]
- ET-50 (hrs), general guideline examples (RHE tissues [5]): 4-12 moderate to mild hrs

Molecule: C[C@H](N)C(=O)O [Alanine]
- DRH [4, 9]: 83.1%

Molecule: NCC(=O)O [Glycine, reference compound]
- expected in vivo irritancy from ET-50 (RHE tissues [1]): non-irritants
- impact on the viability of the RHE tissues (RHE tissues [1]): no significant impact
- DRH [4, 9]: 79.13%

Molecule: N[C@H](CO)C(=O)O [D-serine]
- DRH ([4]; D-serine 0.95 g): 85.40%
- DRH ([4]; D-serine 1.2 g): 82.13%

Molecule: O=[N+]([O-])[O-].O=[N+]([O-])[O-].[Zn+2] [Zinc Nitrate]
- DRH [4, 9]: 45.8%

Molecule: N[C@@H](CC(=O)O)C(=O)O [Aspartic acid]
- DRH [4, 9]: 100.0%

Molecule: Cc1ncc([N+](=O)[O-])n1CCO [Metronidazole]
- ER (drug absorption enhancement factor) [8]: 15
- Log P [6]: −0.02

Molecule: N[C@@H](CS)C(=O)O [Cysteine]
- DRH [4, 9]: 89.6%

Molecule: N[C@@H](CO)C(=O)O [L-serine, reference compound]
- expected in vivo irritancy from ET-50 (RHE tissues [1]): non-irritants
- impact on the viability of the RHE tissues (RHE tissues [1]): no significant impact
- DRH [4, 9]: 82.53%

Molecule: O=C(O)[C@@H]1CCCN1 [L-Proline]
- DRH [4, 9]: 44.6%

Molecule: C[C@@H](O)[C@H](N)C(=O)O [Threonine]
- DRH [4, 9]: 86.0%
